Series [1] deals with PBMC. As to the kind of experiment: Inhibition of ConA-induced phospho-JAK1 expression in human PBMC at 90 uM after 72 hrs by flow cytometry. In kind it is functional, cell-based.
In series [2] the target is Tyrosine-protein kinase JAK1 (Homo sapiens) (UniProt P23458). Briefly: Inhibition of JAK1-mediated GATA3 phosphorylation in PMA-stimulated human PBMC at 90 uM after 30 mins by Western blot analysis. (In general: In western blotting, separated proteins are transferred to a membrane and probed.)
Series [3] has as its system T-cell. Briefly: Immunosuppressant activity in human CD4+ T cells assessed as Con A-induced intracellular IL4 level at 90 uM after 72 hrs by flow cytometry (reference value: 4.2+/-0.9%). Type of series: functional. Background: In flow cytometry, cells or beads pass a laser one at a time.
In series [4] the test system is PBMC. As to the kind of experiment: Inhibition of Con A-induced phospho-GATA3 expression in human PBMC at 90 uM after 72 hrs by flow cytometry. Type of series: functional, cell-based.
Series [5] relates to PBMC. Briefly: Inhibition of PMA-induced GATA3 expression in human PBMC at 90 uM after 15 mins by Western blot analysis. Type of series: functional, cell-based.
Series [6] concerns the target Tyrosine-protein kinase JAK1 (Homo sapiens) (UniProt P23458). Briefly: Inhibition of PMA-induced JAK1 phosphorylation in human PBMC at 90 uM after 15 mins by Western blot analysis.
Series [7] concerns PBMC. As to the kind of experiment: Inhibition of Con-A-induced phospho-STAT6 expression in human PBMC at 90 uM after 72 hrs by flow cytometry (reference value: 10.52+/-1.9%). In kind it is functional. To be noted: read-out: INH.
The subject of series [8] is PBMC. Briefly: Inhibition of PMA-induced JAK1 expression in human PBMC at 90 uM after 15 mins by Western blot analysis. Type of series: functional, cell-based.
The test system of series [9] is T-cell. Briefly: Inhibition of CD4 expression in human CD4+ T cells. Type of series: functional, cell-based.
The subject of series [10] is PBMC. As to the kind of experiment: Immunosuppressant activity in human PBMC assessed as reduction in Con A-induced extracellular IL4 level at 90 uM after 72 hrs by ELISA relative to untreated control. In kind it is functional. Background: ELISA stands for enzyme-linked immunosorbent assay.
The subject of series [11] is Mus musculus. As to the kind of experiment: Immunosuppressant activity in C57BL/6 mouse infected with Schistosoma japonicum assessed as inhibition of IL-4 production in liver at 100 mM, iv after 56 days by ELISA. Type of series: functional, organism-based.
Series [12] deals with Mus musculus. Briefly: Immunosuppressant activity in C57BL/6 mouse infected with Schistosoma japonicum assessed as inhibition of IFN-gamma production in spleen at 100 mM, iv after 56 days by ELISA. Type of series: functional, organism-based.
Series [13] addresses Tyrosine-protein kinase JAK1 (Homo sapiens) (UniProt P23458). Briefly: Inhibition of PMA-induced JAK1 phosphorylation in human PBMC at 90 uM by Western blot analysis. To be noted: TDE = time-dependent effect.
The subject of series [14] is T-cell. As to the kind of experiment: Immunosuppressant activity in human CD3+ CD4+ T cells pretreated with TritonX 100 assessed as CD4 internalization at 90 uM after 72 hrs by confocal laser scanning microscopy. In kind it is functional, cell-based.
The subject of series [15] is PBMC. Briefly: Induction of apoptosis in Con A-stimulated human PBMC assessed as necrotic cells at 90 uM after 72 hrs by annexin V/PI based flow cytometric analysis (reference value: 5.8 %). In kind it is cell-based.
Series [16] deals with Mus musculus. As to the kind of experiment: Immunosuppressant activity in C57BL/6 mouse infected with Schistosoma japonicum assessed as inhibition of IFN-gamma production in spleen at 100 mM, iv after 45 days by ELISA. In kind it is functional, organism-based.
Series [17] relates to T-cell. As to the kind of experiment: Immunosuppressant activity in human CD3+ CD4+ T cells pretreated with TritonX 100 assessed as reduction in CD4 surface expression at 90 uM after 72 hrs by flow cytometry (reference value: 46%). In kind it is functional. The arrangement: scale not given: the % may be the effect or the level left.
The test system of another series is Splenocyte. Briefly: Immunosuppressant activity in BALB/c mouse splenocytes assessed as reduction in Con A-induced IL4 secretion at 90 uM after 72 hrs by ELISA. In kind it is functional, cell-based.
Series [18] concerns T-cell. Briefly: Immunosuppressant activity in human CD3+ CD4+ T cells assessed as reduction in CD4 surface expression at 90 uM after 72 hrs by flow cytometry (reference value: 46%). In kind it is functional. More on the design: scale not given: the % may be the effect or the level left.
In series [19] the test system is Mus musculus. As to the kind of experiment: Immunosuppressant activity in C57BL/6 mouse infected with Schistosoma japonicum assessed as inhibition of IFN-gamma production in liver at 100 mM, iv after 45 days by ELISA. Type of series: functional, organism-based.
The target in series [20] is Tyrosine-protein kinase JAK1 (Homo sapiens) (UniProt P23458). As to the kind of experiment: Inhibition of JAK1-mediated GATA3 phosphorylation in PMA-stimulated human PBMC at 90 uM by Western blot analysis. The note with it: TDE = time-dependent effect.
Series [21] in a line: Induction of apoptosis in Con A-stimulated human PBMC assessed as viable cells at 90 uM after 72 hrs by annexin V/PI based flow cytometric analysis (reference value: 84.6 %). In kind it is cell-based. To be noted: read-out: Activity.
Series [22] relates to Mus musculus. Briefly: Immunosuppressant activity in C57BL/6 mouse infected with Schistosoma japonicum assessed as decrease in liver granuloma size at 100 mM, iv after 45 days. Type of series: functional, organism-based.
Series [23] relates to PBMC. Briefly: Induction of apoptosis in Con A-stimulated human PBMC assessed as early apoptotic cells at 90 uM after 72 hrs by annexin V/PI based flow cytometric analysis (reference value: 6.3 %). Type of series: cell-based.
In the next series the test system is Schistosoma japonicum. Briefly: Antischistosomiasis activity against Schistosoma japonicum infected in C57BL/6 mouse at 100 mM, iv after 45 days. In kind it is functional, organism-based.
Series [24] has as its system Mus musculus. Briefly: Immunosuppressant activity in C57BL/6 mouse infected with Schistosoma japonicum assessed as inhibition of IL-4 production in liver at 100 mM, iv after 45 days by ELISA. In kind it is functional, organism-based.
Series [25] deals with PBMC. Briefly: Induction of apoptosis in Con A-stimulated human PBMC assessed as late apoptotic cells at 90 uM after 72 hrs by annexin V/PI based flow cytometric analysis (reference value: 4.3 %). In kind it is cell-based.
Series [26] concerns Mus musculus. As to the kind of experiment: Immunosuppressant activity in C57BL/6 mouse infected with Schistosoma japonicum assessed as inhibition of IL-4 production in spleen at 100 mM, iv after 56 days by ELISA. In kind it is functional, organism-based.
Series [27] relates to Mus musculus. Briefly: Immunosuppressant activity in C57BL/6 mouse infected with Schistosoma japonicum assessed as inhibition of IFN-gamma production in liver at 100 mM, iv after 56 days by ELISA. Type of series: functional, organism-based.

Active and inactive are the calls of the source. The rule behind the calls is not given here.

Sequence of Tyrosine-protein kinase JAK1 (Homo sapiens) (P23458 whole entry): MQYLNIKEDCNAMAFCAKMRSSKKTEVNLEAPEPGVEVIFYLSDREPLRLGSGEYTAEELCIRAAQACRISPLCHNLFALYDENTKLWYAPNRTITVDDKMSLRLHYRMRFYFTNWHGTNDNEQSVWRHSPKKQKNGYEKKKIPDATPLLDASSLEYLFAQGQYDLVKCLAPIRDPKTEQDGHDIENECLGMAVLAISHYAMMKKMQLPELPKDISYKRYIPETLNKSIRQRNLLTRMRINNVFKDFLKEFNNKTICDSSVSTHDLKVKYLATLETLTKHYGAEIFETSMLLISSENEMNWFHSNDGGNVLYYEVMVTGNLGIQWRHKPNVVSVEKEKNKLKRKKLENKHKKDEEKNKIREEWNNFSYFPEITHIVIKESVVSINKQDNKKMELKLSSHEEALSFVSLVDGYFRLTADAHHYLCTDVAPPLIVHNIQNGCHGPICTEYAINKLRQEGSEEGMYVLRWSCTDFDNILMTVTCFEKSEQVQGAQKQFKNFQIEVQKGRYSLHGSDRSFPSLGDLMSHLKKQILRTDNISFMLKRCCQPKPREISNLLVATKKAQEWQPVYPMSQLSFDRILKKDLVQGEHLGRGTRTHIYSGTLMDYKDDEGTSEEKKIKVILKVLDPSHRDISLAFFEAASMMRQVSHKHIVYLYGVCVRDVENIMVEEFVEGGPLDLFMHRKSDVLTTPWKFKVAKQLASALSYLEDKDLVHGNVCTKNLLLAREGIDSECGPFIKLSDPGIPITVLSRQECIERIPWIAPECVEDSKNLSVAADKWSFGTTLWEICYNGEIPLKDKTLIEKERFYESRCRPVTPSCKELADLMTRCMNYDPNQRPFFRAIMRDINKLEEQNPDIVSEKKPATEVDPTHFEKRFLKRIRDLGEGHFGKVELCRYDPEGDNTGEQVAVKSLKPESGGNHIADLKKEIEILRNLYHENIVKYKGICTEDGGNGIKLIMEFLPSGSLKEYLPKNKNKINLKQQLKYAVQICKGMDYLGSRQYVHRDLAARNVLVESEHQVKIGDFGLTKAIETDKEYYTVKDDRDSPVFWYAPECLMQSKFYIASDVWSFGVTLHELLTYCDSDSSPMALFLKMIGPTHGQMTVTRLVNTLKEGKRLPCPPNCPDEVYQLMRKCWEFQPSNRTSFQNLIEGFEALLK

`OC[C@H]1NC[C@@H](O)[C@@H](O)[C@@H]1O` [DEOXYMANNOJIRIMYCIN]: the inhibition entry in the series on PBMC [1] and in the series on PBMC [4] was “Active” each time. Further, the inhibition result (in [2]; in the series with PBMC [5]; in [6]; with PBMC [8]) was “inactive” throughout. Besides, the Activity in the series with T-cell [3] stood at 1.5%. The phospho-STAT6 expression level at 90 µM in the series with PBMC [7] came out at 8.8%.

On to `OC[C@H]1NC[C@H](O)[C@@H](O)[C@@H]1O` [DUVOGLUSTAT], for which the inhibition entry with PBMC [1] and in the series with PBMC [4] was “Active” each time. Moreover, the inhibition entry (in series [2]; in the series with PBMC [5]; in series [6]; with PBMC [8]) was “inactive” in each case. Moreover, the Activity in the series on T-cell [3] was 2.53%. Further, the midpoint of inhibition in the series with T-cell [9], the IC50, lay at 25.6 µM. Further, the phospho-STAT6 expression level at 90 µM in the series on PBMC [7] is 9.6%. Moreover, in the series on PBMC [10], the outcome was inactive.

On to `C/C=C/C[C@@H](C)[C@@H](O)[C@H]1C(=O)N[C@@H](CC)C(=O)N(C)CC(=O)N(C)[C@@H](CC(C)C)C(=O)N[C@@H](C(C)C)C(=O)N(C)[C@@H](CC(C)C)C(=O)N[C@@H](C)C(=O)N[C@H](C)C(=O)N(C)[C@@H](CC(C)C)C(=O)N(C)[C@@H](CC(C)C)C(=O)N(C)[C@@H](C(C)C)C(=O)N1C` [CYCLOSPORINE], for which the Activity in the series with T-cell [3] stood at 0.71%; with PBMC [10], 26%. Moreover, the phospho-STAT6 expression level at 90 µM with PBMC [7] came out at 3.7%.

For `OC[C@@H]1[C@@H](O)[C@H](O)[C@@H](O)CN1Cc1c(F)c(F)c(F)c(F)c1F`, the inhibition entry (in the series on PBMC [1]; in series [2]; in the series with PBMC [4]; in series [6]; with Mus musculus [26]) was “Active” in each case. The inhibition entry in the series on Mus musculus [11], in the series with Mus musculus [12], in the series on Mus musculus [16], with Mus musculus [19], in the series with PBMC [5] and with Mus musculus [24] was “inactive” throughout. For the same compound, the inhibition entry with Mus musculus [27] and in the series with PBMC [8] was “inactive” each time. The inhibition result in series [13] and in [20] was “tde” throughout. Moreover, the result with T-cell [14], in the series on Splenocyte, in the series on Mus musculus [22] and with Schistosoma japonicum was Active. For the same compound, the Activity with T-cell [3] was found to be 0.79%; in the series on PBMC [15], 4.7%; with T-cell [17], 44%; in the series with T-cell [18], 28%; with PBMC [23] it was 7.2%; in the series with PBMC [25] it was 5.2%. For the same compound, the Activity in the series with PBMC [10] is reported as 26%. Also, the viability at 72 h, 90 µM in series [21] was 83%. In the series on T-cell [9], the IC50 (in general, the concentration at which inhibition is half-maximal) came to 20.2 µM. Moreover, the phospho-STAT6 expression level at 90 µM with PBMC [7] is 4.5%.

Values taken from ChEMBL document CHEMBL1955762, “An iminosugar N-pentafluorobenzyl-1-deoxynojirimycin as a novel potential immunosuppressant for the treatment of Th2-related diseases” (Bioorg Med Chem Lett, 2012).
